Patent US4542027A, “Laidlomycin phenylcarbamate” (Syntex (U.S.A.) Inc., priority 1984, dated 1985)
Like-named read-outs stand apart in the source and are kept apart here. Values belong to the compound of their own block, whether it stands above or below them.

What was measured:
[1] = Stability in soybean millrun feed premix at 60° C.; type: physicochemical; settings: soybean millrun feed premix; 60° C., one week, soybean millrun premix, 10% (w/w)
Description: These materials were then stored at 60° C. and analyzed for starting material at one week. The premix composition is given in Table 5 and the stability data in Table 6.

[2] = Stability at 60° C. in methanol-water, acetate buffer; type: physicochemical; settings: methanol-water, acetate buffer
Description: Laidlomycin phenylcarbamate, laidlomycin isopopylcarbamate and two laidlomycin esters were prepared and their relative stability at 60° C. methanol-water, acetate buffer was determined. A complete list of the esters and carbamates which were tested under these conditions follows: […]

Gram positive bacteria = settings: Journal of Antibiotics 1974, 1976; cited from earlier work
rumen fluid [3] = experiment: Propionic acid production (VFA) in in vitro rumen fluid fermentation; type: cell-based, steer; parameters: Propionic acid production rate: unit not given here; settings: 9 h
Description: (§1) Two separate fermentation models were used to evaluate effects of laidlomycin and laidlomycin phenylcarbamate upon volatile fatty acids (VFA) and lactic acid production. Test compounds were solubilized in absolute ethanol at concentrations of 1 mg/ml and were serially diluted twofold in absolute ethanol through six additional concentrations. Aliquots of 200 μl were transferred to 18×150 mm test tubes, which were used as incubation vessels, and the ethanol was evaporated.
(§2) For both fermentation models rumen fluid from a rumen-fistulated steer, consuming a 100% alfalfa hay diet, was obtained before the morning feeding. The fluid was strained through four layers of cheesecloth, mixed with an equal volume of CO2 -saturated buffer, and 10 ml was transferred to each of the incubation vessels. All tubes were fitted with gas-release stoppers under an atmosphere of CO2 and were incubated in a shaking waterbath at 39° C. […] This medium, designed to be microbiologically nonselective, encouraged VFA production with no accumulation of lactic acid. Buffer used to study lactic acid accumulation (table 1) contained 150 mmol of glucose/liter and had little buffering capacity. This medium favored growth of lactic acid-producing bacteria and allowed rapid production of lactic acid coupled with a precipitous drop in pH from pH 6.2 to less than pH 5 during the course of an incubation.
(§3) Fermentation was terminated at 9 h for the VFA fermentations and at 5.5 h for the lactic acid fermentations by addition of 2 ml of 25% metaphosphoric acid to the incubation tubes. Aliquots were frozen overnight, thawed, centrifuged at 30,000 × g for 10 min and the resulting supernatants analyzed for either L(+)-lactic acid or VFA. The L(+)-lactic acid was analyzed via a specific enzymatic assay in which the concentration of lactic acid in the fermentation broth was quantified by the increase in absorbance of light at 340 nm when nicotinamide adenine dinucleotide was reduced by lactic acid with the aid of L(+)-lactic dehydrogenase. VFA were analyzed via gas chromatography using a Varian chromatograph equipped with a flame ionization detector. Acids were separated on a glass column (0.64×182.9 cm) packed with 10% SP-1200/1% H3 PO4 on Chromosorb-WAW®, 80-100 mesh. This column was obtained pre-packed from Supelco, Inc., Bellefont, Pennsylvania. Chromatographic conditions included a column temperature of 145° C., an injector temperature of 190° C., a detector temperature of 190° C., a carrier gas flow of 45 ml/min and an injection volume of 1 μl.
(§4) Net production rates of all acids were calculated by subtracting the concentration of acids in the incubation fluid before incubation from the concentration determined in each tube after incubation. Molar proportions of acetic, propionic, and butyric acids produced were calculated by dividing the production rate of individual acids by the sum of the production rates of the three acids. Data were analyzed by analysis of variance (SAS, 1979). Comparisons (Duncan's multiple range test) of individual means were made when treatment effects (P<0.05) were indicated.

rumen fluid [4] = experiment: L(+)-Lactic acid production in in vitro rumen fluid fermentation; type: cell-based, steer; parameters: Lactic acid production rate: unit not given here; settings: 5.5 h
Description: as §1, §2, §3, §4

[5] = U.S. Pat. No. 3,794,732; cited from earlier work

Compound: CCC(=O)OC(C(C)C(=O)O)C(C)C1OC2(CCC(C)(C3CCC(C)(C4OC(C5OC(O)(COC(=O)C(C)C)C(C)CC5C)CC4C)O3)O2)CC(O)C1C (stereo not shown) [Laidlomycin isobutyrate, reference compound]
- remaining at 168 h [1]: 70%

Compound: CCC(=O)OCC1(O)OC(C2CC(C)C(C3(C)CCC(C4(C)CCC5(CC(O)C(C)C(C(C)C(OC(=O)CC)C(C)C(=O)O)O5)O4)O3)O2)C(C)CC1C (stereo not shown) [Laidlomycin propionate, reference compound]
- half-life ([2]; 60° C., read-out: t1/2 (converted)): 11.1 h
- remaining at 168 h [1]: 59%

Compound: CCC(=O)OC(C(C)C(=O)O)C(C)C1OC2(CCC(C)(C3CCC(C)(C4OC(C5OC(O)(CO)C(C)CC5C)CC4C)O3)O2)CC(O)C1C (stereo not shown) [Laidlomycin, laidlomycin]
- Growth inhibition of Gram positive bacteria (Gram positive bacteria): inhibits the growth of Gram positive bacteria
- Propionic acid production rate (rumen fluid [3]; 0.31 μg/ml): 21.1
- Propionic acid production rate (rumen fluid [3]; 1.25 μg/ml): 20.9
- Propionic acid production rate (rumen fluid [3]; 2.50 μg/ml): 21.8
- Propionic acid production rate (rumen fluid [3]; 5.00 μg/ml): 22.2
- Propionic acid production rate (rumen fluid [3]; 10.00 μg/ml): 23.1
- Propionic acid production, percentage of control (rumen fluid [3]; 10.00 μg/ml): 108 % of control
- Propionic acid production rate (rumen fluid [3]; 20.00 μg/ml): 23.2
- Propionic acid production, percentage of control (rumen fluid [3]; 20.00 μg/ml): 109 % of control
- activity at 0.31 µg/mL (rumen fluid [3]; 0.31 μg/ml, read-out: Propionic acid production, percentage of control): 99%
- activity at 1.25 µg/mL (rumen fluid [3]; 1.25 μg/ml, read-out: Propionic acid production, percentage of control): 98%
- activity at 2.5 µg/mL (rumen fluid [3]; 2.50 μg/ml, read-out: Propionic acid production, percentage of control): 102%
- activity at 5 µg/mL (rumen fluid [3]; 5.00 μg/ml, read-out: Propionic acid production, percentage of control): 104%
- activity at 10 µg/mL (rumen fluid [3]; 10.00 μg/ml, read-out: Propionic acid production, percentage of control): 108%
- activity at 20 µg/mL (rumen fluid [3]; 20.00 μg/ml, read-out: Propionic acid production, percentage of control): 109%
- activity at 0.62 µg/mL (rumen fluid [3]; read-out: Propionic acid production, percentage of control, 0.62 μg/ml, 9 h): 98%
- Lactic acid production rate (rumen fluid [4]; 0.31 μg/ml): 28.3
- activity at 0.31 µg/mL (rumen fluid [4]; 0.31 μg/ml, read-out: Lactic acid production, percentage of control): 101%
- Lactic acid production rate (rumen fluid [4]; 0.62 μg/ml): 30.7
- activity at 0.62 µg/mL (rumen fluid [4]; 0.62 μg/ml, read-out: Lactic acid production, percentage of control): 110%
- Lactic acid production rate (rumen fluid [4]; 1.25 μg/ml): 26.4
- activity at 1.25 µg/mL (rumen fluid [4]; 1.25 μg/ml, read-out: Lactic acid production, percentage of control): 94%
- Lactic acid production rate (rumen fluid [4]; 2.50 μg/ml): 32.0
- activity at 2.5 µg/mL (rumen fluid [4]; 2.50 μg/ml, read-out: Lactic acid production, percentage of control): 115%
- Lactic acid production rate (rumen fluid [4]; 5.00 μg/ml): 26.5
- activity at 5 µg/mL (rumen fluid [4]; 5.00 μg/ml, read-out: Lactic acid production, percentage of control): 95%
- Lactic acid production rate (rumen fluid [4]; 10.00 μg/ml): 21.6
- activity at 10 µg/mL (rumen fluid [4]; 10.00 μg/ml, read-out: Lactic acid production, percentage of control): 77%
- Lactic acid production rate (rumen fluid [4]; 20.00 μg/ml): 22.7
- Lactic acid production, percentage of control (rumen fluid [4]; 20.00 μg/ml): 81 % of control
- activity at 20 µg/mL (rumen fluid [4]; 20.00 μg/ml, read-out: Lactic acid production, percentage of control): 81%

Compound: CC[C@@]1([C@@H]2O[C@@H]([C@H]3O[C@@](O)(CO)[C@H](C)C[C@@H]3C)C[C@@H]2C)CC[C@H]([C@]2(C)CC[C@]3(C[C@H](O)[C@@H](C)[C@@H]([C@@H](C)[C@@H](OC)[C@H](C)C(=O)O)O3)O2)O1 [Monensin]
- Increasing feed utilization in ruminants [5]: useful in increasing feed utilization in ruminants

- half-life [2]: 22.3 h
Compound: CCCC(=O)O [butyrate]

Compound: laidlomycin isopopylcarbamate [isopropylcarbamate]
- t1/2 ([2]; 60° C.): 501.8 h
